Results published in patent US20110182850A1, “ORGANIC COMPOUNDS AND THEIR USES” (priority 2009, published 2011).
Like-named read-outs stand apart in the source and are kept apart here.

How the values were obtained:
[1] = target: T1, HCV NS3-4A serine protease (full-length NS3-4A protein, genotype 1a, strain HCV-1) (Hepatitis C virus genotype 1a, UniProt P26664); assay: HCV NS3-4A protease assay; assay type: biochemical
T1 construct: using the full-length NS3-4A protein (genotype 1a, strain HCV-1)
T1 sequence (P26664 1658-1711): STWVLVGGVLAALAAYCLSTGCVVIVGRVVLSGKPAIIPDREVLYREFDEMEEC
T1 sequence (P26664 1027-1657): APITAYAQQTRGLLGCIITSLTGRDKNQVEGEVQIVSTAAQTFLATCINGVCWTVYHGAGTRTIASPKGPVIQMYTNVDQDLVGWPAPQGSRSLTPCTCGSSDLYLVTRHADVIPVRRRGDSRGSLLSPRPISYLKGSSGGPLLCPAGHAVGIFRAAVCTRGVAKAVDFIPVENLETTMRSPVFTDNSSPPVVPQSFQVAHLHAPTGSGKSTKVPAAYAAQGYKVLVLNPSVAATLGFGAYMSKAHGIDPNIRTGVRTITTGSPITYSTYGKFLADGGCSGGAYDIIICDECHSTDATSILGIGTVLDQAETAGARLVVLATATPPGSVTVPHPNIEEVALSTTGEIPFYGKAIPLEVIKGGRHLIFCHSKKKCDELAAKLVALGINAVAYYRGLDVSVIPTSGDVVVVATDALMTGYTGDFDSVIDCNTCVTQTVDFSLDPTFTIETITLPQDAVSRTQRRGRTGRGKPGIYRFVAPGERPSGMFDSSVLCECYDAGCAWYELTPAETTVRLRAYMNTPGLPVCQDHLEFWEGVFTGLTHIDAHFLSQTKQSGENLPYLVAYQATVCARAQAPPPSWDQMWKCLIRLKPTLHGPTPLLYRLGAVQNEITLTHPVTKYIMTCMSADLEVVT
Protocol: The inhibitory activity of certain compounds of Table A against HCV NS3-4A serine protease is determined in a homogenous assay using the full-length NS3-4A protein (genotype 1a, strain HCV-1) and a commercially available internally-quenched fluorogenic peptide substrate as described by Taliani, M., et al. 1996 Anal. Biochem. 240:60-67, which is incorporated by reference in its entirety.

[2] = Measurement of thermodynamic solubility; assay type: physicochemical
Protocol: Thermodynamic solubility for the compounds of the invention listed in Table C is measured by a published literature procedure, e.g., Liping Zhou, et al., J. Pharm. Sci (2007) 96(11): 3052-3071.
The DMSO stocks of test compounds previously dissolved in 25 μL of DMSO (˜10 mM) in mini-prep vial (MPV: Whatman, with PVDF filter and 0.45 μm pore size) chamber were evaporated via a GeneVac HT-4X evaporator for approximately 1 hour, at the guard temperature of 30° C. An aliquot of 250 μL buffer solution (pH 1.0 or 6.8) was added into each MPV chamber containing powders reconstituted from DMSO stock solutions. The MPV filter plungers were pushed down into the chamber until the membrane of the filter plunger slightly touched the surface of the buffer to promote equilibrium between the two compartments and to minimize the adsorption due to non-specific binding of samples during the subsequent 24-hr incubation (at 600 RPM at room temperature). Immediately after the 24-hr incubation, the plungers were further pushed down to the bottom of the chambers. More solution was pushed through the membrane and entered the plunger compartment. The filter/chamber assemblies were then put on a shaker for another 30 minutes at 600 RPM. Afterwards, filtrates were further diluted (1:10) with 50/50 acetonitrile/water solvent followed by a thorough mixing process. Both plates with diluted and undiluted filtrates were analyzed by HPLC and quantified against the four-point standard dilution curve of the same test compound (5 μM, 35 μM, 65 μM and 100 μM, respectively). In the current study, solubility reflects the average of triplicate samples tested at each pH.

| Compound | IC50 ([1]; Protease IC50) [nM] | IC50 ([1]; read-out: Protease IC50) [nM] | also measured |
| --- | --- | --- | --- |
| C=C[C@@H]1C[C@]1(NC(=O)[C@@H]1C[C@@]2(CN1C(=O)[C@@H](NC(=O)[C@@H](NC(=O)c1c(C)n[nH]c1C)C(C)(C)C)C(C)(C)C)C(C)(C)C21CCC1)C(=O)NS(=O)(=O)C1CC1 [Compound 136, (5R,8S)-N-{(1R,2S)-1-[(cyclopropylsulfonyl)carba-moyl]-2-vinylcyclopropyl}-7-[(2S)-2-{[(2S)-2-{[(3,5-dimethyl-1H-pyrazol-4-yl)carbonyl]amino}-3,3-dimethylbutanoyl]amino}-3,3-dimethylbutanoyl]-10,10-dimethyl-7-azadispiro[3.0.4.1]decane-8-carboxamide] | 20 | – | – |
| C=C[C@@H]1C[C@]1(NC(=O)[C@@H]1C[C@@]2(CN1C(=O)[C@@H](NC(=O)[C@@H](NC(=O)c1c(C)nn(C)c1C)C(C)(C)C)C(C)(C)C)C(C)(C)C21CCC1)C(=O)NS(=O)(=O)C1CC1 [Compound 137, (5R,8S)-N-{(1R,2S)-1-[(cyclopropylsulfonyl)carba-moyl]-2-vinylcyclopropyl}-7-[(2S)-2-{[(2S)-3,3-dimethyl-2-{[(1,3,5-trimethyl-1H-pyrazol-4-yl)carbonyl]amino}butanoyl]amino}-3,3-dimethylbutanoyl]-10,10-dimethyl-7-azadispiro[3.0.4.1]decane-8-carboxamide] | 30 | – | – |
| C=C[C@@H]1C[C@]1(NC(=O)[C@@H]1C[C@@]2(CN1C(=O)[C@@H](NC(=O)[C@@H](NC(=O)c1cc(C(C)(C)C)n[nH]1)C(C)(C)C)C(C)(C)C)C(C)(C)C21CCC1)C(=O)NS(=O)(=O)C1CC1 [Compound 138, (5R,8S)-7-[(2S)-2-{[(2S)-2-{[(3-tert-butyl-1H-pyrazol-5-yl)carbonyl]amino}-3,3-dimethylbutanoyl]amino}-3,3-dimethylbutanoyl]-N-{(1R,2S)-1-[(cyclopropylsulfonyl)carba-moyl]-2-vinylcyclopropyl}-10,10-dimethyl-7-azadispiro[3.0.4.1]decane-8-carboxamide] | 5.5 | – | – |
| C=C[C@@H]1C[C@]1(NC(=O)[C@@H]1C[C@@]2(CN1C(=O)[C@@H](NC(=O)[C@@H](NC(=O)C1CN(C(C)C)C1)C(C)(C)C)C(C)(C)C)C(C)(C)C21CCC1)C(=O)NS(=O)(=O)C1CC1 [Compound 139, (5R,8S)-N-{(1R,2S)-1-[(cyclopropylsulfonyl)carba-moyl]-2-vinylcyclopropyl}-7-[(2S)-2-{[(2S)-2-{[(1-isopropylazetidin-3-yl)carbonyl]amino}-3,3-dimethylbutanoyl]amino}-3,3-dimethylbutanoyl]-10,10-dimethyl-7-azadispiro[3.0.4.1]decane-8-carboxamide] | 15 | – | – |
| C=C[C@@H]1C[C@]1(NC(=O)[C@@H]1C[C@@]2(CN1C(=O)[C@@H](NC(=O)[C@@H](NC(=O)[C@H]1CCCN1C(C)C)C(C)(C)C)C(C)(C)C)C(C)(C)C21CCC1)C(=O)NS(=O)(=O)C1CC1 [Compound 140, (5R,8S)-N-{(1R,2S)-1-[(cyclopropylsulfonyl)carba-moyl]-2-vinylcyclopropyl}-7-[(2S)-2-{[(2S)-2-({[(2R)-1-isopropylpyrrolidin-2-yl]carbonyl}amino)-3,3-dimethylbutanoyl]amino}-3,3-dimethylbutanoyl]-10,10-dimethyl-7-azadispiro[3.0.4.1]decane-8-carboxamide] | 1.5 | – | – |
| C=C[C@@H]1C[C@]1(NC(=O)[C@@H]1C[C@@]2(CN1C(=O)[C@@H](NC(=O)[C@@H](NC(=O)[C@@H]1CCCN1C(C)C)C(C)(C)C)C(C)(C)C)C(C)(C)C21CCC1)C(=O)NS(=O)(=O)C1CC1 [Compound 141, (5R,8S)-N-{(1R,2S)-1-[(cyclopropylsulfonyl)carba-moyl]-2-vinylcyclopropyl}-7-[(2S)-2-{[(2S)-2-({[(2S)-1-isopropylpyrrolidin-2-yl]carbonyl}amino)-3,3-dimethylbutanoyl]amino}-3,3-dimethylbutanoyl]-10,10-dimethyl-7-azadispiro[3.0.4.1]decane-8-carboxamide] | 2 | – | – |
| C=C[C@@H]1C[C@]1(NC(=O)[C@@H]1C[C@@]2(CN1C(=O)[C@@H](NC(=O)[C@@H](NC(=O)[C@H]1CCCCN1C(C)C)C(C)(C)C)C(C)(C)C)C(C)(C)C21CCC1)C(=O)NS(=O)(=O)C1CC1 [Compound 142, (5R,8S)-N-{(1R,2S)-1-[(cyclopropylsulfonyl)carba-moyl]-2-vinylcyclopropyl}-7-[(2S)-2-{[(2S)-2-({[(2R)-1-isopropylpiperidin-2-yl]carbonyl}amino)-3,3-dimethylbutanoyl]amino}-3,3-dimethylbutanoyl]-10,10-dimethyl-7-azadispiro[3.0.4.1]decane-8-carboxamide] | 3 | – | – |
| C=C[C@@H]1C[C@]1(NC(=O)[C@@H]1C[C@@]2(CN1C(=O)[C@@H](NC(=O)[C@@H](NC(=O)[C@@H]1COCCN1C(C)C)C(C)(C)C)C(C)(C)C)C(C)(C)C21CCC1)C(=O)NS(=O)(=O)C1CC1 [Compound 143, (5R,8S)-N-{(1R,2S)-1-[(cyclopropylsulfonyl)carba-moyl]-2-vinylcyclopropyl}-7-[(2S)-2-{[(2S)-2-({[(3S)-4-isopropylmorpholin-3-yl]carbonyl}amino)-3,3-dimethylbutanoyl]amino}-3,3-dimethylbutanoyl]-10,10-dimethyl-7-azadispiro[3.0.4.1]decane-8-carboxamide] | 4 | – | – |
| C=CCC1(S(=O)(=O)NC(=O)[C@@]2(NC(=O)[C@@H]3C[C@@]4(CN3C(=O)[C@@H](NC(=O)[C@@H](NC(=O)[C@@H]3CCCCN3C(C)C)C3CCCCC3)C(C)(C)C)C(C)(C)C43CCC3)C[C@H]2C=C)CC1 [Compound 144, (5R,8S)-N-[(1R,2S)-1-{[(1-allylcyclopropyl)sulfonyl]carba-moyl}-2-vinylcyclopropyl]-7-[(2S)-2-{[(2S)-2-cyclohexyl-2-({[(2S)-1-isopropylpiperidin-2-yl]carbonyl}amino)acetyl]amino}-3,3-dimethylbutanoyl]-10,10-dimethyl-7-azadispiro[3.0.4.1]decane-8-carboxamide] | 1 | – | – |
| (5R,8S)-7-[(2S)-2- ({cyclohexyl[(1H-pyrazol-4- ylcarbonyl)amino]acetyl} amino)-3,3-dimethylbutanoyl]-N- {(1R,2S)-1- [(cyclopropylsulfonyl)carba- moyl]-2-vinylcyclopropyl}- 10,10-dimethyl-7- azadispiro[3.0.4.1]decane-8- carboxamide [Compound 106] | – | 1 | – |
| (5R,8S)-7-[(2S)-2-{[(2S)-2- cyclohexyl-2-({[(2S)-1- isopropylpiperidin-2- yl]carbonyl}amino)acetyl] amino}-3,3-dimethylbutanoyl]-N- {(1R,2S)-1- [(cyclopropylsulfonyl)carba- moyl]-2-vinylcyclopropyl}- 10,10-dimethyl-7- azadispiro[3.0.4.1]decane-8- carboxamide [Compound 21] | – | 0.5 | – |
| (5R,8S)-7-[(2S)-2-{[(2S)-2-cyclohexyl-2-({[(2S)-1-isopropylpiperidin-2-yl]carbonyl}amino)acetyl]amino}-3,3-dimethylbutanoyl]-N-{(1R,2S)-1-[(cyclopentylsulfonyl)carbamoyl]-2-vinylcyclopropyl}-10,10-dimethyl-7-azadispiro[3.0.4.1]decane-8-carboxamide [Compound 80] | – | – | solubility in water ([2]; pH 1): at least 100 micromolar; solubility in water ([2]; pH 6.8): at least 30 micromolar |
| (5R,8S)-7-[(2S)-2-{[{[(5- chloro-1H-indol-2- yl)carbonyl]amino}(cyclohex- yl)acetyl]amino}-3,3- dimethylbutanoyl]-N- {(1R,2S)-1- [(cyclopropylsulfonyl)carba- moyl]-2-vinylcyclopropyl}- 10,10-dimethyl-7- azadispiro[3.0.4.1]decane-8- carboxamide [Compound 129] | – | 15 | – |
| (5R,8S)-7-{(2S)-2- [(cyclohexyl{[(1- methylcyclohexyl)carbonyl] amino}acetyl)amino]-3,3- dimethylbutanoyl}-N- {(1R,2S)-1- [(cyclopropylsulfonyl)carba- moyl]-2-vinylcyclopropyl}- 10,10-dimethyl-7- azadispiro[3.0.4.1]decane-8- carboxamide [Compound 128] | – | 5 | – |
| (5R,8S)-N-{(1R,2S)-1- [(cyclopropylsulfonyl)carba- moyl]-2-vinylcyclopropyl}-7- [(2S)-2-({(2S)-3,3-dimethyl- 2-[(piperidin-1- ylcarbonyl)amino]butanoyl} amino)-3,3-dimethylbutanoyl]- 10,10-dimethyl-7- azadispiro[3.0.4.1]decane-8- carboxamide [Compound 57] | – | 25 | – |
